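The compound was tested at five concentrations on cells cultured in 96-well plates, with a 48-hour exposure period. At the GI50, growth is halved.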 Active and inactive are the calls of the source. Rule as the data show it: active = GI50 up to about 1.1 µM and inactive = higher.
What was measured:
Assay in all cases: NCI tumour cell line growth inhibition, 48 h
SN12C = tested on: SN12C
CCRF-CEM = tested on: CCRF-CEM
SF-268 = tested on: SF-268
OVCAR-5 = tested on: OVCAR-5
HCT-116 = tested on: HCT-116
NCI-H522 = tested on: NCI-H522
NCI-H23 = tested on: NCI-H23
IGROV-1 = tested on: IGROV-1
ACHN = tested on: ACHN
HCC 2998 = tested on: HCC 2998
SK-MEL-2 = tested on: SK-MEL-2
OVCAR-4 = tested on: OVCAR-4
SF-539 = tested on: SF-539
UACC-62 = tested on: UACC-62
K562 = tested on: K562
RXF 393 = tested on: RXF 393

Measured: GI50

N#C/N=C(/N)NCc1ccccc1
inactive: SN12C > 100 µM | CCRF-CEM > 100 µM | SF-268 > 100 µM | OVCAR-5 > 100 µM | HCT-116 > 100 µM | NCI-H522 > 100 µM | NCI-H23 > 100 µM | IGROV-1 > 100 µM | ACHN > 100 µM | HCC 2998 23.4 µM | SK-MEL-2 > 100 µM | OVCAR-4 > 100 µM | SF-539 > 100 µM

O=C1CCCCCCCCCCC1CN1CCCCC1 (stereo not drawn)
inactive: SN12C > 100 µM | CCRF-CEM 66.8 µM | SF-268 > 100 µM | UACC-62 88.9 µM | OVCAR-5 89.7 µM | HCT-116 58.6 µM | NCI-H522 > 100 µM | NCI-H23 26.9 µM | IGROV-1 74.3 µM | K562 94.4 µM | ACHN > 100 µM | HCC 2998 > 100 µM | SK-MEL-2 > 100 µM | OVCAR-4 > 100 µM

CCOC(=O)[C@H]1Nc2ccc(C)cc2C2c3ccccc3CC21 (stereo partly drawn)
inactive: SN12C > 100 µM | RXF 393 31.6 µM | SF-268 > 100 µM | UACC-62 > 100 µM | OVCAR-5 > 100 µM | HCT-116 > 100 µM | NCI-H522 > 100 µM | NCI-H23 > 100 µM | IGROV-1 > 100 µM | K562 > 100 µM | ACHN > 100 µM | HCC 2998 > 100 µM | SK-MEL-2 > 100 µM | OVCAR-4 > 100 µM | SF-539 > 100 µM

COc1cccc(/C=C2\C(=O)N(C(=O)c3ccc(NC(C)=O)cc3)N=C2C)c1
inactive: SN12C > 100 µM | CCRF-CEM > 100 µM | SF-268 > 100 µM | OVCAR-5 > 100 µM | HCT-116 > 100 µM | NCI-H522 > 100 µM | NCI-H23 > 100 µM | K562 > 100 µM | ACHN > 100 µM | HCC 2998 > 100 µM | SK-MEL-2 > 100 µM | OVCAR-4 > 100 µM | SF-539 > 100 µM

CN(c1ccccc1)c1nc(=[N+]2CCCC2)ss1.[O-][Cl+3]([O-])([O-])[O-]
inactive: SN12C > 100 µM | RXF 393 3.03 µM | CCRF-CEM > 100 µM | SF-268 > 100 µM | UACC-62 > 100 µM | HCT-116 > 100 µM | NCI-H522 1.7 µM | IGROV-1 > 100 µM | K562 74.5 µM | ACHN > 100 µM | HCC 2998 > 100 µM | SK-MEL-2 > 100 µM | OVCAR-4 > 100 µM

Nc1cc[nH]c(=O)n1
inactive: SN12C > 100 µM | RXF 393 > 100 µM | CCRF-CEM > 100 µM | SF-268 > 100 µM | UACC-62 > 100 µM | OVCAR-5 > 100 µM | HCT-116 > 100 µM | NCI-H522 > 100 µM | IGROV-1 > 100 µM | K562 > 100 µM | ACHN > 100 µM | SK-MEL-2 > 100 µM | OVCAR-4 > 100 µM | SF-539 > 100 µM

O=C(Cn1ccnc1[N+](=O)[O-])c1ccc(F)cc1
inactive: SN12C > 100 µM | RXF 393 > 100 µM | CCRF-CEM > 100 µM | SF-268 > 100 µM | UACC-62 > 100 µM | OVCAR-5 > 100 µM | NCI-H522 > 100 µM | NCI-H23 > 100 µM | IGROV-1 > 100 µM | K562 > 100 µM | ACHN > 100 µM | SK-MEL-2 > 100 µM | OVCAR-4 > 100 µM | SF-539 > 100 µM

O=C(Cc1nc2ccc(C(=O)c3ccccc3)cc2nc1O)C(=O)Nc1ccc(C(F)(F)F)cc1[N+](=O)[O-]
inactive: SN12C > 100 µM | CCRF-CEM 27.3 µM | SF-268 65 µM | UACC-62 38.9 µM | OVCAR-5 > 100 µM | HCT-116 96.2 µM | NCI-H522 31.3 µM | NCI-H23 75 µM | IGROV-1 > 100 µM | K562 27.6 µM | ACHN > 100 µM | HCC 2998 > 100 µM | SK-MEL-2 > 100 µM | OVCAR-4 > 100 µM | SF-539 53.3 µM

OC12CCC3(O)c4ccccc4C3C1c1ccccc12 (stereo not drawn)
inactive: SN12C > 100 µM | RXF 393 > 100 µM | CCRF-CEM > 100 µM | SF-268 > 100 µM | UACC-62 > 100 µM | HCT-116 > 100 µM | NCI-H522 > 100 µM | NCI-H23 > 100 µM | K562 > 100 µM | ACHN > 100 µM | SK-MEL-2 > 100 µM | OVCAR-4 > 100 µM

c1ccc2c(c1)[nH]c1c2ncc2[nH]c3ccccc3c21
inactive: SN12C 3.51 µM | CCRF-CEM 3.03 µM | SF-268 6.32 µM | UACC-62 1.76 µM | OVCAR-5 10.9 µM | HCT-116 1.77 µM | NCI-H522 4.74 µM | NCI-H23 10.4 µM | IGROV-1 5.19 µM | K562 2.55 µM | ACHN 4.24 µM | HCC 2998 2.64 µM | SK-MEL-2 7.29 µM | OVCAR-4 1.9 µM | SF-539 2.61 µM
